Laboratory results as given in patent publication US7183091B2, “Sulfite reductase, the process for producing the same and the use thereof” (Nugen Bioscience (Taiwan) Co., Ltd., priority 2003, dated 2007).
Where two headings read alike, the source gives them in different places.

How the values were obtained:
[1] = tested on: sulfite reductase from Escherichia coli; assay: Effects of metal ions, inhibitors and reducing agents on enzyme activity; format: biochemical
Protocol: (§1) […]. To 0.9 mL reaction mixture [0.1 M phosphate buffer (pH 7.7) containing 0.5 mM EDTA, 0.5 mM NaHSO3, 1 μM FMN, and 0.2 mM NADPH], 0.1 mL of reductase was added and incubated at 25° C. The activity was determined according to the initial velocity after the addition of reductase and corrected by the slow oxidation of NADPH in the absence of sulfite. One activity unit was defined as the amount of enzyme which catalyzed the oxidation of 1 μmol NADPH within 1 minute reaction 25° C. under the above condition.

[2] = target: T1, sulfite reductase from Saccharomyces cerevisiae (Saccharomyces cerevisiae, UniProt P39692+P47169); assay: as above; format: biochemical; details: for effect of metal ions on catalytic activity: metals 0.5, 1.0, 5.0 and 10.0 mM
T1 construct: Saccharomyces cerevisiae cell was collected by 30 min centrifugation at 4,000×g; made in house; host or cells: endogenous enzyme purified from cultured Saccharomyces cerevisiae cells (not recombinant)
T1 sequence (P47169 1-1442): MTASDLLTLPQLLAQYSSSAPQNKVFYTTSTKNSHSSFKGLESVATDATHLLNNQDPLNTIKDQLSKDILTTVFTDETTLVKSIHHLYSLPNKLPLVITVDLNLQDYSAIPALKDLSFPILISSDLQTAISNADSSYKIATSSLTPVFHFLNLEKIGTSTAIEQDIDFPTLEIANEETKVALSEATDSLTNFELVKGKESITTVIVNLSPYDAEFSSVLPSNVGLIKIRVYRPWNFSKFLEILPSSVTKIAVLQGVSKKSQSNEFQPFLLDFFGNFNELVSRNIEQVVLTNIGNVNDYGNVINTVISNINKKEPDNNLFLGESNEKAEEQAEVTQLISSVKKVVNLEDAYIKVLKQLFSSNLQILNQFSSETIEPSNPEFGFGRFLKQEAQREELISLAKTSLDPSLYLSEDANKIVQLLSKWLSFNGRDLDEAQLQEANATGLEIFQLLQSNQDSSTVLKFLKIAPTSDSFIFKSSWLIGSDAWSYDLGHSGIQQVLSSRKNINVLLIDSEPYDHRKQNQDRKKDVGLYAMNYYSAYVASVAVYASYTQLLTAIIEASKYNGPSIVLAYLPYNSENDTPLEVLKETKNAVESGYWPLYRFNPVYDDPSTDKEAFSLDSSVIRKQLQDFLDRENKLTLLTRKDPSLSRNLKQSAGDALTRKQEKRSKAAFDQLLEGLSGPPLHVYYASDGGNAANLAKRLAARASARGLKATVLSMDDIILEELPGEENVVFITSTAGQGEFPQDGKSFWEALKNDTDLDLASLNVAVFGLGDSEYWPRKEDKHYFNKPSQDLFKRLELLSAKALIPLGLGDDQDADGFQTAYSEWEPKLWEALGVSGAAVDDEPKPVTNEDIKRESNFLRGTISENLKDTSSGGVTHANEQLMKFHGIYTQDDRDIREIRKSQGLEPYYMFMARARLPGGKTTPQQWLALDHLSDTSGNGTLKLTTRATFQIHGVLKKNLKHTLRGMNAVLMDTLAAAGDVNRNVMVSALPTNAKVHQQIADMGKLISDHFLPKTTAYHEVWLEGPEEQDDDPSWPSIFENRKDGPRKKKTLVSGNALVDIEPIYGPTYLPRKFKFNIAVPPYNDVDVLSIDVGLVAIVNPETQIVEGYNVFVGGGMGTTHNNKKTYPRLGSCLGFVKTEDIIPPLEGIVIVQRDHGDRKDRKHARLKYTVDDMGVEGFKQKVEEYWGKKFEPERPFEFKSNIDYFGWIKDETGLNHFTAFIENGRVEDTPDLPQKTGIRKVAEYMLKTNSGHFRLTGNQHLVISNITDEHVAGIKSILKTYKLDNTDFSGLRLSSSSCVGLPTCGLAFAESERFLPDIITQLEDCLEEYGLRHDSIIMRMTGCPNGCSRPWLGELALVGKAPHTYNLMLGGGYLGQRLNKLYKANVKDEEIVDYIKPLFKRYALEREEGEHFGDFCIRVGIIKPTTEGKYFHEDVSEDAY
T1 sequence (P39692 1-1035): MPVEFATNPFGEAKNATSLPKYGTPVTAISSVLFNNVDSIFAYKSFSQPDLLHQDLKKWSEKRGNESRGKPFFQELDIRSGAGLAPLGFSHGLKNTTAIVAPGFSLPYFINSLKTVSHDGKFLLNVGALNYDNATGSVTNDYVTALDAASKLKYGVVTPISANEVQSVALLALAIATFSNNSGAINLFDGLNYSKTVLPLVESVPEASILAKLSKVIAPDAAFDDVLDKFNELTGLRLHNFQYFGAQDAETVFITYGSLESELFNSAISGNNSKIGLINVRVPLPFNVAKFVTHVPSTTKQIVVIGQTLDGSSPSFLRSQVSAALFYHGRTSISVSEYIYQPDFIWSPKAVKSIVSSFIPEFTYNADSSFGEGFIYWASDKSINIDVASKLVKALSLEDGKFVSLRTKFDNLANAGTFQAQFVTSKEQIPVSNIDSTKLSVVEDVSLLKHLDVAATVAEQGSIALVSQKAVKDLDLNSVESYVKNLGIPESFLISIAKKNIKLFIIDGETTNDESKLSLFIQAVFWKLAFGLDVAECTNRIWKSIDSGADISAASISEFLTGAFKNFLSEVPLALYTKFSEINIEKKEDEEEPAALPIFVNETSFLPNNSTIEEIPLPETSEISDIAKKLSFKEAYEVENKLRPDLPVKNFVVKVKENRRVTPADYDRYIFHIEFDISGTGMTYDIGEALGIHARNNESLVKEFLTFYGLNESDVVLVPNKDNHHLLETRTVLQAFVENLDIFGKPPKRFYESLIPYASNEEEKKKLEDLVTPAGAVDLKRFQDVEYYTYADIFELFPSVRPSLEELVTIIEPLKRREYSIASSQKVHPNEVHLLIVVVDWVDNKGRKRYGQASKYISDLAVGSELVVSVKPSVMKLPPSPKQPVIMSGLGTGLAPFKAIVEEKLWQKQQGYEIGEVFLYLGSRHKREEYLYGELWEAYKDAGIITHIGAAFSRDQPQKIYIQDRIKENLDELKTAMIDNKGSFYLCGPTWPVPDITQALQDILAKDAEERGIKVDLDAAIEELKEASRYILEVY
Protocol: as §1

[3] = inhibitor 1.0 mM, 25° C., 30 minutes
[4] = metals 0.5, 1.0, 5.0 and 10.0 mM, 25° C., 30 minutes

SMILES	effect of metal ions on catalytic activity ([2]; 25° C., 30 minutes)	effect of metal ions on catalytic activity [1, 4]	other results
O=S(=O)(F)Cc1ccccc1 [PMSF, phenylmethylsulfonyl fluoride]			effect of inhibitors on catalytic activity [1, 3]: partially; effect of inhibitors on catalytic activity [2, 3]: partially
O=S(=O)(O)c1cc[c]([Hg][Cl])cc1 [PCMPS, p-chloromercuriphenylsulfonic acid]			effect of inhibitors on catalytic activity [2, 3]: completely inhibited
[Ni+2] [Ni^2+]	partially		
N[C@@H](CS)C(=O)O [cysteine]			effect of reducing agents on enzyme activity [1]: improved the activity; effect of reducing agents on enzyme activity [2]: improved the activity
[Cu+2] [Cu^2+]	strongly inhibited	strongly inhibited	
[Mn+2] [Mn^2+]	partially	moderately	
[Ba+2] [Ba^2+]	partially	moderately	
[Fe+2] [Fe^2+]	partially	strongly inhibited	
N[C@@H](CCC(=O)N[C@@H](CS)C(=O)NCC(=O)O)C(=O)O [glutathione]			effect of reducing agents on enzyme activity [1]: improved the activity; effect of reducing agents on enzyme activity [2]: improved the activity
[K+] [K^+]	did not affect the enzyme activity		effect of metal ions on catalytic activity [1]: did not affect the enzyme activity
O[C@H](CS)[C@H](O)CS (racemic) [dithiothreitol]			effect of reducing agents on enzyme activity [1]: improved the activity; effect of reducing agents on enzyme activity [2]: improved the activity
[Pb+2] [Pb^2+]	strongly inhibited		
[Zn+2] [Zn^2+]	strongly inhibited	moderately	
[Co+2] [Co^2+]	partially	strongly inhibited	
[Na+] [Na^+]	did not affect the enzyme activity	did not affect the enzyme activity	
OCCS [β-mercaptoethanol]			effect of reducing agents on enzyme activity [1]: improved the activity; effect of reducing agents on enzyme activity [2]: improved the activity
[Mg+2] [Mg^2+]	did not affect the enzyme activity	did not affect the enzyme activity	
[Hg+2] [Hg^2+]	strongly inhibited	strongly inhibited	
[Ca+2] [Ca^2+]	did not affect the enzyme activity	strongly inhibited	
O=C(O)CI [IAA, Iodoacetate]			effect of inhibitors on catalytic activity [1]: partially; effect of inhibitors on catalytic activity [2]: partially
CCN1C(=O)C=CC1=O [NEM, N-ethylmaleimide]			effect of inhibitors on catalytic activity [1, 3]: partially; effect of inhibitors on catalytic activity [2, 3]: partially
O=C(O)c1cc[c]([Hg][Cl])cc1 [PCMB, p-chloromercuribenzoate]			effect of inhibitors on catalytic activity [1, 3]: completely inhibited; effect of inhibitors on catalytic activity [2, 3]: completely inhibited
[Cd+2] [Cd^2+]		moderately	
